# Experimental data from ChEMBL document CHEMBL1131752, “Binding and catalysis by yeast aldose reductase: a substrate-analog approach with new aldose derivatives” (Bioorg Med Chem Lett, 1999).
# How the values were obtained:
# [1] = tested on: Xylose reductase (Candida tenuis); test: Ratio of catalytic constant (kcat)/Kinetic constant(Km)
# [2] = tested on: Xylose reductase (Candida tenuis); test: The catalytic constant(kcat) for the NADH-catalyzed by aldose reductase from candida tenuis; settings: Yamadazyma tenuis
SMILES,k cat/Km [1] [M⁻¹ s⁻¹],k cat [2] [s⁻¹]
CC[C@H]1OC(O)[C@H](O)[C@H]1O (some centres undefined),38900,20.6
OC1O[C@H](CF)[C@H](O)[C@H]1O (some centres undefined),34300,22.3
OC1OC(C(F)CF)C(O)C1O (centres undefined),15300,21.4
C[C@H]1OC(O)[C@H](O)[C@H]1O (some centres undefined),23200,21.6
[N-]=[N+]=NC[C@H]1OC(O)[C@H](O)[C@H]1O (some centres undefined),1690,–
